Columns and labels:
[1] = Chronic toxicology studies in dogs; format: in vivo; settings: up to 39 weeks
[2] = test system: Primary human hepatocytes; set-up: method as in PMID 24419349; settings: 5 days, read-out: Mean CC50 ± SD in Hepatic cells (primary); cited from earlier work
Quiescent PBMCs = test system: Quiescent PBMCs; set-up: method as in PMID 24419349; settings: 5 days; read-out: Mean CC50 ± SD in PBMCs Quiescent; cited from earlier work
RNA PolI = biological target: T1, RNA PolI (Rattus norvegicus, UniProt O54889); experiment: RNA PolI inhibition assay; format: biochemical; settings: NTP analogs 0 to 500 μM; read-out: Mean IC50 ± SD for RNA PolI
T1 construct: complexes were isolated from rat NSN1 cells and HeLa cells, respectively; made in house; host or cells: rat NSN1 cells expressing a FLAG-tagged Pol I subunit
Text: Human DNA polymerase alpha, isolated from HeLa cell extracts, was from CHIMERx (Madison, WI). Recombinant human DNA polymerase beta, expressed in E. coli, was a gift from Zucai Suo at The Ohio State University. Recombinant human DNA polymerase gamma (including both the large subunit and the small subunit) was cloned, expressed, and purified from insect cells by Gilead Sciences (Foster City, CA) ([13]). RNA PolII was purchased as part of the HeLaScribe nuclear extract in vitro transcription system kit from Promega (Madison, WI). The recombinant human PolRMT and the transcription factors mitochondrial transcription factor A (mtTFA) and B2 (mtTFB2) were purchased from Enzymax (Lexington, KY). FLAG epitope-tagged RNA PolI and PolIII complexes were isolated from rat NSN1 cells and HeLa cells, respectively ([17], [18]). The inhibition of DNA polymerases alpha, beta, and gamma, PolRMT, and PolII and the rate of single-nucleotide incorporation by PolRMT have been described previously in detail ([12], [13], [19]). Inhibition of RNA PolI and PolIII was studied using published methods ([20], [21]). All concentrations were final unless noted otherwise. For the RNA PolI inhibition assay, a reaction mixture containing 50 mM HEPES (pH 7.9), 20% glycerol, 100 mM KCl, 1 mM dithiothreitol (DTT), 50 μg/ml calf thymus DNA, 4 mM MgCl2, 5 or 80 μM UTP (0.25 μl of [5,6-^3H]UTP, >25 Ci/mmol; PerkinElmer), 1 mM noncompeting NTP, competing NTP (5 μM for GTP, CTP, and UTP and 25 μM for ATP), and various concentrations (0 to 500 μM) of NTP analogs was preincubated at 30°C for 5 min. […] After incubation at 30°C for 20 min to 1 h, the reactions were terminated by pipetting the mixtures onto DEAE-cellulose discs (DE81; Whatman), and the products analyzed as described previously ([20], [21]).

[3] = Cytotoxicity in primary rat neonatal cardiomyocytes, 5 days; format: cell-based; settings: Sprague Dawley, 5-day treatment, read-out: CC50 (mean ± standard deviation) in primary rat cardiomyocytes
[4] = test system: RNA transcription products from PolI (preribosome), PolII (myc), and PolRMT (ATP6) in PC-3 cells; experiment: RNA transcripts in PC-3 cells by RT-PCR; format: cell-based, human; settings: 100 μM, 1-day treatment
Experimental: CX-5461, a known specific RNA PolI inhibitor, was used as the positive control ([25]). The growth medium was aspirated and replaced with 200 μl of 100 μM BMS-986094, 5 μM CX-5461, or DMSO control prepared in growth medium. At selected time points (0.5, 1, 4, 8, and 24 h), duplicate wells of the compounds and DMSO control were aspirated, the cells were washed 1× with PBS (pH 7.4), and 100 μl of RNA lysis buffer was added (Promega, Sunnyvale, CA). RNA was purified using the Wizard SV 96 total RNA isolation kit (Promega) and eluted in 100 μl of nuclease-free water. The TaqMan RNA-to-Ct 1-step kit (ABI/Life Technologies) was used for reverse transcription-quantitative PCR (RT-qPCR) amplification and quantification, using the 7900HT Fast real-time PCR system (ABI) under the following conditions: 15 min at 48°C for reverse transcription and 10 min at 95°C for activation, followed by 40 cycles of 15 s at 95°C for denaturation and 1 min at 60°C for annealing and extension. […] Transcripts were quantified relative to the standard curves, and the results expressed as the percentages of the average value of DMSO control wells.

T1 sequence (O54889 whole entry): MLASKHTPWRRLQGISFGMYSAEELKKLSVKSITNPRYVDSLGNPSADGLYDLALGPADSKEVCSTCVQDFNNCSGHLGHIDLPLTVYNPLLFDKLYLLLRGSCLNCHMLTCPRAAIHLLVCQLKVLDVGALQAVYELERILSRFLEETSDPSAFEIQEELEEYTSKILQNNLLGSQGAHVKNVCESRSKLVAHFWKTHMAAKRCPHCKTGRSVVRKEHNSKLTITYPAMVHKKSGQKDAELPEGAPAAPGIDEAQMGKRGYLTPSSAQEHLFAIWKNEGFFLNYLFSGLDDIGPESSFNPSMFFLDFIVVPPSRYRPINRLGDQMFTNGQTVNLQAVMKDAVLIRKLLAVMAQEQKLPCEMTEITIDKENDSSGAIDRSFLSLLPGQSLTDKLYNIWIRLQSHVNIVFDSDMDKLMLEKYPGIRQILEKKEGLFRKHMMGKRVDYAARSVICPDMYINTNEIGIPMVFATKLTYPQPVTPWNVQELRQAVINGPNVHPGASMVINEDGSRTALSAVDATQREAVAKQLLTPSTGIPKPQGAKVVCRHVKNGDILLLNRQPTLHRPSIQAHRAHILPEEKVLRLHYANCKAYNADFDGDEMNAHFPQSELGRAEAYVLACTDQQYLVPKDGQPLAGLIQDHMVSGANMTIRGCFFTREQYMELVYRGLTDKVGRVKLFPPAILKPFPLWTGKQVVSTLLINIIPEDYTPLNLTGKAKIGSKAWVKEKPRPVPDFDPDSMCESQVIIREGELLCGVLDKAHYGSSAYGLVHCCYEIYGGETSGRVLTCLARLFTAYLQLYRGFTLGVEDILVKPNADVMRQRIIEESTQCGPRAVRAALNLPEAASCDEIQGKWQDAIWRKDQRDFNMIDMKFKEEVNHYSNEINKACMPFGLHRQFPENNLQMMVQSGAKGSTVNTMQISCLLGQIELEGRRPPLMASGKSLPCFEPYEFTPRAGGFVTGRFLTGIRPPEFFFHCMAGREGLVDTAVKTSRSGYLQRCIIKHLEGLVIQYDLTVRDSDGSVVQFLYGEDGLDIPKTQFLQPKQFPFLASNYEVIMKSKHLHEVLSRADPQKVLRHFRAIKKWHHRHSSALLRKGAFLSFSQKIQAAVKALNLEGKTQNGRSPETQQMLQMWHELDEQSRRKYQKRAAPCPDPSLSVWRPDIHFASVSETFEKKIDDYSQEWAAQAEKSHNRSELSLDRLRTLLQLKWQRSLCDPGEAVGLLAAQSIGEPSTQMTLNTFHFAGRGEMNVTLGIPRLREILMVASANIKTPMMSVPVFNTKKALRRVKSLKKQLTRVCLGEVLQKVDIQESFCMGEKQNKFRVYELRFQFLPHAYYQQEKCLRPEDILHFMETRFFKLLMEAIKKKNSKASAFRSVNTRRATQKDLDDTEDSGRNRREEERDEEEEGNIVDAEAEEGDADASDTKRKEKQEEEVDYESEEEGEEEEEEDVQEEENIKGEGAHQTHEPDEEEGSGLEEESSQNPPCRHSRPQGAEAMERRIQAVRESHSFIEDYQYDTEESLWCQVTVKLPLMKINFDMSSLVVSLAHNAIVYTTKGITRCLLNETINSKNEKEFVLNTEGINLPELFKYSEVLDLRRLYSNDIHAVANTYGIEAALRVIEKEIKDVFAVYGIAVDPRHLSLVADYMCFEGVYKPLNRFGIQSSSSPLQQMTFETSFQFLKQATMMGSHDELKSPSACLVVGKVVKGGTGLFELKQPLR

In the case of CC(C)OC(=O)[C@H](C)N[P@](=O)(OC[C@H]1O[C@@](C#N)(c2ccc3c(N)ncnn23)[C@](C)(O)[C@@H]1OC(=O)C(C)C)Oc1ccccc1 [GS-6620], the “effects during chronic toxicology studies” value [1] is given as “did not show”, the CC50 [2] is given as greater than 100 µM and the CC50 (Quiescent PBMCs) is given as greater than 100 µM.

Compound C[C@@]1(O)[C@H](O)[C@@H](COP(=O)(O)OP(=O)(O)OP(=O)(O)O)O[C@H]1n1cnc2c(=O)[nH]c(N)nc21 [2′CMeGTP] has an IC50 (RNA PolI) of 300 ± 60 µM.

With COc1nc(N)nc2c1ncn2[C@@H]1O[C@H](COP(=O)(N[C@@H](C)C(=O)OCC(C)(C)C)Oc2cccc3ccccc23)[C@@H](O)[C@@]1(C)O (stereo partly drawn) [BMS-986094] the CC50 at 5 days [3] was 0.68 ± 0.32 µM and the “relative levels of RNA transcripts (preribosomal, myc, mitochondrial ATP6, total RNA)” value [4] was “decreased the relative levels of multiple RNA transcripts”.
